# Peptide text beside a SMILES is read from it.
# Tests used:
# Kv 1.3 = target: T1, Kv 1.3 (Rattus norvegicus, UniProt P15384); assay: [125I]ChTX binding to rat brain synaptic plasma membrane vesicles; conditions: low ionic strength (50 mM NaCl, 20 mM Tris-HCl, pH 7.4)
# T1 construct: from tissue; host or cells: rat brain synaptic plasma membrane vesicles
# Protocol: The potency of MgTX as an inhibitor of [^125 I]ChTX binding to Kv 1.3 was evaluated. The binding of [^125 I]ChTX to either rat brain synaptic plasma membrane vesicles (Kv 1.3 channel; Vazquez et al., J. Biol. Chem. 265, 15564, 1990) or bovine aortic smooth muscle sarcolemmal membranes (Maxi-K channel; Vazquez et al., J. Biol. Chem. 264, 20402, 1989) was determined as described. Briefly, membrane vesicles were incubated with [^125 I]ChTX in the presence or absence of other added agents, until equilibrium was achieved. Separation of bound from free ligand was accomplished by filtration through GF/C glass fiber filters (WHATMAN) that had been presoaked in 0.5% polyethyleneimine. Nonspecific binding was determined in the presence of 10 nM unlabeled ChTX. Data from saturation experiments were analyzed in a Scatchard representation to determine Kd and Bmax values. Triplicate samples were obtained for each experimental point and the data were averaged. The standard deviation of the mean was typically less than 2%. […] As an indication of selectivity, MgTX had no effect on [^125 I]ChTX binding to the Maxi-K channel in smooth muscle membranes at concentrations up to 10 nM.
# [1] = target: T2, lymphocyte Kv 1.3 current (Homo sapiens, UniProt P22001); assay: Whole cell patch clamp of human peripheral T-lymphocytes; type: cell-based
# T2 construct: endogenous in cells; host or cells: purified human peripheral blood T lymphocytes
# Protocol: Ionic currents were recorded from human peripheral T-lymphocytes using the whole cell patch clamp technique described in Cahalan, M. and Neher, E., Meth. Enzymol. 207, 3, 1992. Purified human T cells were obtained as described in Leonard et al., Proc. Natl. Acad. Sci. U.S.A., 89, 10094, 1992, and recordings were carried out in a bath solution consisting of ^125 mM NaCl, 2.5 mM KCl, 1.0 mM CaCl2, 2.0 mM MgCl2, 10 mM HEPES (potassium salt), 10 mM glucose, 5 mM Na-pyruvate, and 0.05% BSA. The pH was adjusted to 7.2, and experiments were performed at room temperature (19°-22° C.). The intracellular (pipette) solution contained 140 mM K-glutamate, 1 mM MgCl2, 10 mM HEPES (potassium salt), and 0.1 mM EGTA. The pH was adjusted to 7.2. Patch pipettes were fabricated from DAGAN (Minneapolis, Minn.) LG-16 glass and had resistances of 2 to 8M.OMEGA.. Currents were measured using a DAGAN model 3900 patch clamp. Delivery of command voltages, data acquisition, and post-acquisition analysis were aided by a microcomputer running the Pclamp program suite (AXON INSTRUMENTS, Foster City, Calif.).
# Methods for oocyte isolation and micro-injection were previously described in Goldin, Meth. Cell Biol, 36, 487, 1991, and Swanson and Folander, Meth. Enzymol., 207, 310, 1992. Currents expressed in oocytes were measured using a DAGAN model CA-1 two-electrode voltage clamp. Delivery of command voltages, data acquisition and post-acquisition analysis were aided by a microcomputer running the Pclamp program suite. The oocyte bathing solution consisted of 96 mM NaCl, 2.5 mM KCl, 1 mM MgCl2, 1.8 mM CaCl2, 10 mM HEPES, and 0.05% BSA. The pH was 7.2. All recordings were obtained at room temperature (19°-22° C.). The intracellular microelectrodes were fabricated from DAGAN LE-16 glass in a two-stage pull to a final resistance of 0.6 to 2M.OMEGA. and filled with 3M KCl. For both lymphocyte and oocyte experiments, peptides were diluted into the extracellular solution from 20 μM aqueous stock containing 100 mM NaCl. The presence of 0.05% BSA in the bath solution inhibited non-specific loss of dilute peptide toxins in the perfusion tubing.
# Both native and recombinant MgTX were tested for their ability to block voltage gated K^+ channels. […] There was insufficient native toxin to carry out selectivity studies, so those were conducted using the recombinant material exclusively. […] The apparent IC50 for inhibition of the lymphocyte Kv 1.3 current is between 20 to 100 pM. […] As reported previously, MgTX has no effect on three different ChTX-sensitive, Ca^2+ -activated K^+ channels of lymphocytes, even at 100 nM (Leonard et al., Proc. Natl. Acad. Sci. U.S.A. 89, 10094, 1992).
# [2] = system: three different ChTX-sensitive, Ca2+-activated K+ channels of lymphocytes; conditions: even at 100 nM; cited from earlier work
# T2 sequence (P22001 whole entry): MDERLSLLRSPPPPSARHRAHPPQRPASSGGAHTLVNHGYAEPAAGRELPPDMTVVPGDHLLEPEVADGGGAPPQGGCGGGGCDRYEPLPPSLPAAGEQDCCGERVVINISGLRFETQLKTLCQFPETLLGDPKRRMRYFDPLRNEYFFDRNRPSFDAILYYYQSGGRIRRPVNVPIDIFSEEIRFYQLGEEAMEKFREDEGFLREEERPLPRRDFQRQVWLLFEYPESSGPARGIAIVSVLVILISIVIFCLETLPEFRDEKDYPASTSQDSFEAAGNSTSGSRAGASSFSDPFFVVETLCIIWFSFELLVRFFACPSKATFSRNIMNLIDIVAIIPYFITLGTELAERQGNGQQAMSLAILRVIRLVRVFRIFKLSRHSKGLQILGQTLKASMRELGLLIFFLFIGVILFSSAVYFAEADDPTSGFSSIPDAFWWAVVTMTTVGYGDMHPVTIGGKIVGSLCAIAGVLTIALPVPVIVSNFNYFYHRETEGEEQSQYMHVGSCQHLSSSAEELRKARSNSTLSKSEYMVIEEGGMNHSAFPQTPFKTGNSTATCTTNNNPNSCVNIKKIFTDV
# T1 sequence (P15384 whole entry): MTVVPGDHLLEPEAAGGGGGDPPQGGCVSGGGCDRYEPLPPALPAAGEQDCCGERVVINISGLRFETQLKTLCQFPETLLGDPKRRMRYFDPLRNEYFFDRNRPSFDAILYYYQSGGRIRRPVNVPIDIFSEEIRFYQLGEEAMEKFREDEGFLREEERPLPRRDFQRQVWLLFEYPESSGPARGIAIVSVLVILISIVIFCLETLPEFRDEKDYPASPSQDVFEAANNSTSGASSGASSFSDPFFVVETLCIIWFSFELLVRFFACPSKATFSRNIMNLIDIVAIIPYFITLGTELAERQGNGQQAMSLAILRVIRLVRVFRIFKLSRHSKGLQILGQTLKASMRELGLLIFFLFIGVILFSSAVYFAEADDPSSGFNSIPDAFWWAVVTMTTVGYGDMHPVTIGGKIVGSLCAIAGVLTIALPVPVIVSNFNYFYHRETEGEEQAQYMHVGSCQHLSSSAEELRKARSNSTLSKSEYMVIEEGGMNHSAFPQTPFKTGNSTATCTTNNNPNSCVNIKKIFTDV
structure (smiles),measurement,setting,value
"CC[C@H](C)[C@H](NC(=O)[C@@H](N)[C@@H](C)O)C(=O)N[C@H](C(=O)N[C@@H](CC(N)=O)C(=O)N[C@H](C(=O)N[C@@H](CCCCN)C(=O)N[C@H]1CSSC[C@@H]2NC(=O)[C@H](CCCCN)NC(=O)[C@H](C)NC(=O)CNC(=O)[C@H](C)NC(=O)[C@H](CO)NC(=O)[C@H](CCC(N)=O)NC(=O)CNC(=O)[C@H](Cc3ccccc3)NC(=O)[C@H](CCC(N)=O)NC(=O)[C@H](C)NC(=O)[C@H](CCCCN)NC(=O)[C@@H]3CSSC[C@@H](C(=O)N[C@@H](Cc4ccc(O)cc4)C(=O)N4CCC[C@H]4C(=O)N[C@@H](Cc4c[nH]cn4)C(=O)O)NC(=O)[C@H](CCCCN)NC(=O)[C@H](CSSC[C@H](NC(=O)[C@H](CCC(N)=O)NC(=O)[C@H](CCCCN)NC(=O)[C@@H]4CCCN4C(=O)[C@H](CO)NC(=O)[C@H]([C@@H](C)O)NC1=O)C(=O)N[C@@H](CC(C)C)C(=O)N1CCC[C@H]1C(=O)N1CCC[C@H]1C(=O)N3)NC(=O)[C@H](CCCCN)NC(=O)CNC(=O)[C@H](CC(N)=O)NC(=O)[C@H](CCSC)NC2=O)C(C)C)[C@@H](C)CC [MgTX, Margatoxin] (HELM PEPTIDE1{T.I.I.N.V.K.C.T.S.P.K.Q.C.L.P.P.C.K.A.Q.F.G.Q.S.A.G.A.K.C.M.N.G.K.C.K.C.Y.P.H}$PEPTIDE1,PEPTIDE1,7:R3-29:R3|PEPTIDE1,PEPTIDE1,13:R3-34:R3|PEPTIDE1,PEPTIDE1,17:R3-36:R3$$$V2.0; N-terminus and C-terminus assumed; bridges inferred)",Hill coefficient of inhibition of [125I]ChTX binding to brain membranes,Kv 1.3,1.7
same,IC50,Kv 1.3; read-out: IC50 for inhibition of [125I]ChTX binding to brain membranes,0.036 nM
same,t1/2 of recovery from block following removal from the bath,[1],> 20 min
same,inhibition of the voltage activated K+ channel from human lymphocytes,[1]; at 1 nM,Complete inhibition
same,potency relative to ChTX on the same preparation,[1]; lymphocyte Kv 1.3 current,five to ten-fold more potent
same,IC50,[1]; read-out: apparent IC50 for inhibition of the lymphocyte Kv 1.3 current,0.02 to 0.1 nM
same,effect on three ChTX-sensitive Ca2+-activated K+ channels of lymphocytes,[2],no effect
